Reference: US20210032304A1, “FIBROBLAST GROWTH FACTOR ANALOGS AND USES THEREOF” (University of Florida Research Foundation, Inc., priority 2018, published 2021)
Residues, ends and D or L forms follow the SMILES beside them.

How the values were obtained:
[1] = system: radiation damage (sub-TBI) in Swiss male mice; assay: Sub-TBI irradiation model, survival and body weight over 30 days; type: in vivo; details: for dose needed to gain survival benefit: sub-TBI NIH Swiss model
Description: 150 outbred stock (NIS) Swiss males (8-11 weeks) were subjected to 5 sub-TBI doses (0, 18, 19.5, 20.5, 21.5 Gy). Three single dosages of FGF-P were administered 24 hr post-IR (5.0, 10, and 20 mg/kg), and two single dosages of FGF-PT were administered 24 hr post-IR (10 and 20 mg/kg). One dosage of FGF2 (0.3 mg/kg) and a saline vehicle control was also administered. Animals were followed for signs of distress, survivors, and weight loss/gain for 30 days. Survivors at the end of 30 days were euthanized.
Radiation doses were chosen to bracket the highest dose with few or no deaths (LD20) and the lowest dose with few or no survivors (LD80), thus ensuring a range that includes the LD50 and statistically delivers the highest accuracy and precision per animal.

FGFR-2 alpha IIIc = FGFR-2 alpha IIIc (Homo sapiens, UniProt P21802); assay: SPR (Horiba XelPlex), receptor immobilised, analyte in flow; given as 'associative binding constants'
FGFR-1 alpha IIIc [2] = biological target: T1, FGFR-1 alpha IIIc (Homo sapiens, UniProt P11362); assay: as above
[3] = biological target: T2, FGFR-1 alpha IIIb, P11362; assay: as above
T2 chain: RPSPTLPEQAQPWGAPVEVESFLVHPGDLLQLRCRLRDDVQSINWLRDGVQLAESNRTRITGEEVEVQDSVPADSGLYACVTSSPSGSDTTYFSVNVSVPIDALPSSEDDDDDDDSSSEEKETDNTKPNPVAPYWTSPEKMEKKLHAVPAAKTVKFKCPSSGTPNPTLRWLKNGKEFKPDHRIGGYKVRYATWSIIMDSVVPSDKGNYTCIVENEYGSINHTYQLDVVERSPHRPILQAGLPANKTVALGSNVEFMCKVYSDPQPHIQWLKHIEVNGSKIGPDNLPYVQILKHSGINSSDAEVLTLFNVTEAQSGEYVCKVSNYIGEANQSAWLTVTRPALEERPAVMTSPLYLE

FGFR-1 alpha IIIc [4] = biological target: T1, FGFR-1 alpha IIIc; assay: SPR (Horiba XelPlex), ratio to rhFGF2 on the same receptor
[5] = biological target: T2, FGFR-1 alpha IIIb, P11362; assay: as above
[6] = 19.5 Gy sub-TBI, all doses, single dose 24 hr post-IR
[7] = 20.5 Gy sub-TBI, many doses, particularly FGF-P 5-20 mg/kg
[8] = 18 Gy sub-TBI, single dose 24 hr post-IR, different doses, 30 days

Molecule: rhFGF2: recombinant human basic FGF
- survival [1, 6]: Improved survival
- survival [1, 7]: Improved survival
- dose needed to gain survival benefit [1]: 0.3 mg/kg

Molecule: CC(C)C[C@@H]1NC(=O)[C@H](C)NC(=O)[C@H](C(C)C)NC(=O)[C@H](Cc2ccc(O)cc2)NC(=O)[C@H](Cc2c[nH]c3ccccc23)NC(=O)[C@H](CO)NC(=O)[C@H]([C@@H](C)O)NC(=O)[C@H](Cc2ccc(O)cc2)NC(=O)[C@H](CCCCN)NC(=O)[C@H](CCCNC(=N)N)NC(=O)[C@H](CO)NC(=O)[C@H](CCCNC(=N)N)NC(=O)[C@H](Cc2ccc(O)cc2)NC(=O)[C@@H](N)CSSC[C@@H](C(=O)O)NC(=O)[C@H](CCCNC(=N)N)NC(=O)[C@H](CCCCN)NC1=O [FGF-PT] (HELM PEPTIDE1{C.Y.R.S.R.K.Y.T.S.W.Y.V.A.L.K.R.C}$PEPTIDE1,PEPTIDE1,1:R3-17:R3$$$V2.0; N-terminus and C-terminus assumed)
- survival [1, 8]: Improved survival
- weight recovery [1, 8]: weight recovery
- survival [1, 6]: Improved survival
- weight recovery ([1]; 19.5 Gy sub-TBI, different doses, recovery after severe weight loss): weight recovery
- weight recovery ([1]; 20.5 Gy sub-TBI, different doses, recovery after very severe weight loss): weight recovery
- survival [1, 7]: Improved survival
- dose needed to gain survival benefit [1]: 10 mg/kg

Molecule: recombinant human basic FGF (rhFGF2) (from UniProt P09038 143-288) (ligand)
- Kd (FGFR-2 alpha IIIc): 1.7 nM
- Kd (FGFR-1 alpha IIIc [2]): 0.83 nM

Molecule: YRSRKYTSWYVALKR (modifications not checked) [FGF-PT]
- Kd [3]: 1500 nM
- fold of binding constant against rhFGF2 (FGFR-1 alpha IIIc [4]): 1000 fold
- Kd (FGFR-1 alpha IIIc [2]): 1000 nM
- fold of binding constant against rhFGF2 [5]: 1000 fold
